One block for each compound: values may come before it. Active and inactive are the calls of the source.
Experiments:
[1] = target: Glutathione-S-transferase (Schistosoma japonicum, UniProt Q26513); assay: GST-antibody interaction or FRET quenching – biochemical, TR-FRET, artefact control for Vif-APOBEC3G degradation inhibitor project, dose response (AID 1117362); type: functional
Genome polyprotein = Genome polyprotein (dengue virus type 2, UniProt P29990); assay: flavivirus cap methylation enzyme inhibition – biochemical, confirmation dose response, primary screen (AID 588689); type: functional
Chain of Genome polyprotein (P29990 2492-3391 limits assumed): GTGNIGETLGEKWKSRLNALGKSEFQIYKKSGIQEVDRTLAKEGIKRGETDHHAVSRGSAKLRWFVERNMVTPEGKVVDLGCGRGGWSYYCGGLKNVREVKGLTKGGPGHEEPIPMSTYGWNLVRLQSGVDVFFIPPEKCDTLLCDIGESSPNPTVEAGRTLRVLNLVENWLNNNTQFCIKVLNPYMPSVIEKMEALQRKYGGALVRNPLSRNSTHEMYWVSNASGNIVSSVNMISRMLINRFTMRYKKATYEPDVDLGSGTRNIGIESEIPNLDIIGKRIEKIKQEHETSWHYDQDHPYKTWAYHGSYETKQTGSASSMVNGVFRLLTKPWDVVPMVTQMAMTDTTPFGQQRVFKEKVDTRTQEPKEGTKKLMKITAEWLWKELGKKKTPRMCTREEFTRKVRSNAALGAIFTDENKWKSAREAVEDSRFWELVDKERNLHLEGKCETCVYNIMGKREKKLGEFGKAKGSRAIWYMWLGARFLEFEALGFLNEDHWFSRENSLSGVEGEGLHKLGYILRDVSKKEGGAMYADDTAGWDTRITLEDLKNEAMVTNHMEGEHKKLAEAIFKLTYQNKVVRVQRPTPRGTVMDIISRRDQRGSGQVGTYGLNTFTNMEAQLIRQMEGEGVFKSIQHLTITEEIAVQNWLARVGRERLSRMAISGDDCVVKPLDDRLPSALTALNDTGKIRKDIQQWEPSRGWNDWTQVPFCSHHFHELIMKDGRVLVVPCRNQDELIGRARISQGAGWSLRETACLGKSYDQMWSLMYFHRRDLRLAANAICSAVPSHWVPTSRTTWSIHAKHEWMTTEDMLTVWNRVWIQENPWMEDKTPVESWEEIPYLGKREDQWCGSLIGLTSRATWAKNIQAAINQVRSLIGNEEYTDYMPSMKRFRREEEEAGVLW

[2] = HIV-1 Vif–A3G interaction blockers – biochemical, TR-FRET, GST-Vif 1-94, biotin-A3G peptide, dose response retest, primary screen (AID 1117319); type: functional;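 note: TR-FRET signal of purified GST-Vif binding a biotinylated A3G peptide; inhibitors lower the FRET signal by blocking Vif and A3G binding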
[3] = viability loss in THP-1 monocytes – THP-1 cells, cytotoxicity control for Vif-APOBEC3G degradation inhibitor project, dose response (AID 1117359); type: functional; conditions: THP-1
[4] = target: Glucose-6-phosphate 1-dehydrogenase (Homo sapiens, UniProt P11413); assay: inhibition of Homo sapiens G6PD, dose series – biochemical, fluorescence, selectivity assay for P. falciparum G6PD inhibitor project, dose response (AID 504792); type: functional
Chain of Glucose-6-phosphate 1-dehydrogenase (P11413 whole entry): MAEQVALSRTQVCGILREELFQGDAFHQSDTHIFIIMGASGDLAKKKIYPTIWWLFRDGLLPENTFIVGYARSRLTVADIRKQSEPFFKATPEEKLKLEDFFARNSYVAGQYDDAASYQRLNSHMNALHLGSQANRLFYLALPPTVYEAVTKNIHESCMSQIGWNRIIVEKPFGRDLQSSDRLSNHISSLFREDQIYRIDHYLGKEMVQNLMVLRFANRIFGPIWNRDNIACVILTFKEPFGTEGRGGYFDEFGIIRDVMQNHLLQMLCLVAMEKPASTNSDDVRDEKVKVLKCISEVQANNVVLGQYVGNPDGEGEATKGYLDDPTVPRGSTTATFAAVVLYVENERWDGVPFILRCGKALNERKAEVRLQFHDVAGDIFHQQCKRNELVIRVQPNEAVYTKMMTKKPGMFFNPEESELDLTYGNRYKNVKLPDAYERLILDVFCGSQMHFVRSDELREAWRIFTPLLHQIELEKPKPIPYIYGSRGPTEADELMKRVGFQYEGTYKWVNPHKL

Protein Tat = target: T1, Protein Tat (Human immunodeficiency virus type 1 group M subtype B (isolate HXB2)(HIV-1), UniProt P04608); type: functional;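 note: tat binding to TAR RNA read out by fluorescence polarization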
T1 sequence (P04608 whole entry): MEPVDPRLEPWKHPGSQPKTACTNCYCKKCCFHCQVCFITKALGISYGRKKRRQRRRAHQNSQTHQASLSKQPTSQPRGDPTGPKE

[5] = viability loss in Vero cells – cytotoxicity control for Vif-APOBEC3G degradation inhibitor project, dose response (AID 1117358); type: functional; conditions: Vero
[6] = target: Heat shock protein HSP 90-alpha (Homo sapiens, UniProt P07900); type: functional, organism-based
[7] = target: E3 ubiquitin-protein ligase Mdm2 (Homo sapiens, UniProt Q00987); assay: MDM2-luc reporter signal enhancers, multi-concentration potency testing, MDM2 ubiquitin-protein ligase inhibitor program, whole-cell format, luminescence detection, 384-well microplate (AID 1394); type: functional;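 note: MDM2 E3 inhibitors raise luminescence so EC50 is for signal enhancement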
Chain of E3 ubiquitin-protein ligase Mdm2 (Q00987 whole entry): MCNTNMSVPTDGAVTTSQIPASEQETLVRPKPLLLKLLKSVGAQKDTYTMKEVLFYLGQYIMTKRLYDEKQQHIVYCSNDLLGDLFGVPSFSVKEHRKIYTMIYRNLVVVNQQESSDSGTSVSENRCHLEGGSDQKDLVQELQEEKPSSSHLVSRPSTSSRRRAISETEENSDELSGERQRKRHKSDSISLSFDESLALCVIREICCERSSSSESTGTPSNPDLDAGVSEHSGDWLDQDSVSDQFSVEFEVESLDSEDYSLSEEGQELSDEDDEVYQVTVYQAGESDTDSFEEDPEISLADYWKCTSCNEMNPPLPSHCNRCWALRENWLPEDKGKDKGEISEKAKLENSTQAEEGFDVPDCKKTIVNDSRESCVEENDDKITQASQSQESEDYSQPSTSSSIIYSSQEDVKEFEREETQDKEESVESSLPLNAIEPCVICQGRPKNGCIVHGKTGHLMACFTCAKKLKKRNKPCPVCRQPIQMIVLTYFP

[8] = target: Peroxisome proliferator-activated receptor gamma/Nuclear receptor coactivator 1 (Homo sapiens, UniProt P37231); type: functional;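 note: agonist potency as compounds enhance coactivator SRC-1 recruitment to PPARgamma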
Chain of Peroxisome proliferator-activated receptor gamma/Nuclear receptor coactivator 1 (P37231 whole entry): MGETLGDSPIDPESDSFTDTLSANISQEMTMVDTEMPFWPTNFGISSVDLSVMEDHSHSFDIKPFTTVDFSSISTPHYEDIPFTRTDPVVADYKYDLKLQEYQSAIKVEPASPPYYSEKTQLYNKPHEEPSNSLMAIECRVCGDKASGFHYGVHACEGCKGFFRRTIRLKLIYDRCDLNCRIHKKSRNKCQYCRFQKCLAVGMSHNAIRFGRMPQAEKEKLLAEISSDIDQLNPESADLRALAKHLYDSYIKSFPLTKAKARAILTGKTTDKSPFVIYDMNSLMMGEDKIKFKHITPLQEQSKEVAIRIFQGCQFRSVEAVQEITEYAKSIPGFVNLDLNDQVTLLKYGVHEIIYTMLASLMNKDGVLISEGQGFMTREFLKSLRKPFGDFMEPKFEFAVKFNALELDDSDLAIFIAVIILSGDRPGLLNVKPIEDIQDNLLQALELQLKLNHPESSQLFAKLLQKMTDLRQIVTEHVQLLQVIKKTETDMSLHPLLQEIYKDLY
Chain of Peroxisome proliferator-activated receptor gamma/Nuclear receptor coactivator 1 (Q15788 whole entry, further chain): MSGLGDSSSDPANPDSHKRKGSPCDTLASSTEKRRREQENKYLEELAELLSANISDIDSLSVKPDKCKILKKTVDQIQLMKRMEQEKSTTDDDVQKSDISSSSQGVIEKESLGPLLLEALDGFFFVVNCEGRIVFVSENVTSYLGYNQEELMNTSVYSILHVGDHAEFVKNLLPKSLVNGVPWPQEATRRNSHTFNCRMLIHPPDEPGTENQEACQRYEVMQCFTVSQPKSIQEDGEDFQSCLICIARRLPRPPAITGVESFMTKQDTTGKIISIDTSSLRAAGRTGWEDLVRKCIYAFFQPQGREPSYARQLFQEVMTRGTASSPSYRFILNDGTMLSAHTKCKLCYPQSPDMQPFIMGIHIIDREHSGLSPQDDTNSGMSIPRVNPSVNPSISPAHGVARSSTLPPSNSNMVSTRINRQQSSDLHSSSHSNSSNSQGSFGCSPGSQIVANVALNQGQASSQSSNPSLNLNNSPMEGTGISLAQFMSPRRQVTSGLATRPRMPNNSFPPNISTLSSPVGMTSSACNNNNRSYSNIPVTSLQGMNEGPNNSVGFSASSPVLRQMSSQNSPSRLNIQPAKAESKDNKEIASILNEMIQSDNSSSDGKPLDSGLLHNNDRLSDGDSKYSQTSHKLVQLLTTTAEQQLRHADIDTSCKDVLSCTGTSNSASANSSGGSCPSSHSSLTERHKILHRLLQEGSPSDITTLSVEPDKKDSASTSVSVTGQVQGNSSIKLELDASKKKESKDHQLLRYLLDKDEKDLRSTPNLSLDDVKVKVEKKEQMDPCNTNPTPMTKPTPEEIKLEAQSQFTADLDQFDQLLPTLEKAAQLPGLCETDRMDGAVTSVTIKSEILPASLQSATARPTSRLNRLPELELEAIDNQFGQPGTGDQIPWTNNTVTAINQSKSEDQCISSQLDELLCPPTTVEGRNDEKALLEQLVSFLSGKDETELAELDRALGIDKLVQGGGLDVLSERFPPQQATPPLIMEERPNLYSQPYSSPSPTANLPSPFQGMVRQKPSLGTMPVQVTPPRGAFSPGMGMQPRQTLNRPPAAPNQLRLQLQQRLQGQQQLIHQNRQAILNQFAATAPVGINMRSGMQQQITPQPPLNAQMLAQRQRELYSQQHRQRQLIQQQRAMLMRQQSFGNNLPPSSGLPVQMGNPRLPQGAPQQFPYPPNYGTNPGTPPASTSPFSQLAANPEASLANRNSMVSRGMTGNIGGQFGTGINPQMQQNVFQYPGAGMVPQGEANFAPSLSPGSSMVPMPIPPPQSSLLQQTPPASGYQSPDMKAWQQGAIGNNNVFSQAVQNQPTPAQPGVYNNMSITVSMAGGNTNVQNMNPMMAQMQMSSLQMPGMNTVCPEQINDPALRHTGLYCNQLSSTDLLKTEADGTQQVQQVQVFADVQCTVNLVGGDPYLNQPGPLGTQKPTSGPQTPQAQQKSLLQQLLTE

[9] = target: Neuropeptide Y receptor type 2 (Homo sapiens, UniProt P49146); assay: IC50 for human NPY-Y2 blockade – cell-based, counter-screen for NPY-Y1 antagonist project, dose response (AID 1278); type: functional
Chain of Neuropeptide Y receptor type 2 (P49146 whole entry): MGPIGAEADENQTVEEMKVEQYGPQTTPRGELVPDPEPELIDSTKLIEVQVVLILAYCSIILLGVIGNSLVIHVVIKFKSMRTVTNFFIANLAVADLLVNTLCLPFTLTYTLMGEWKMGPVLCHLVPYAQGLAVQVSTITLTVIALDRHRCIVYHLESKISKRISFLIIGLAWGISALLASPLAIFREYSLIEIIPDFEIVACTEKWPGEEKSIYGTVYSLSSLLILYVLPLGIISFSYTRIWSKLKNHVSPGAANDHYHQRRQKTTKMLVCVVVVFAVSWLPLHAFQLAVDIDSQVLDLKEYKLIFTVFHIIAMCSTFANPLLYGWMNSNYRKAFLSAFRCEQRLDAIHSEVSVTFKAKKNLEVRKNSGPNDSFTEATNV

[10] = target: Peroxisome proliferator-activated receptor gamma/Nuclear receptor coactivator 3 (Homo sapiens, UniProt P37231); type: functional;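 note: agonist potency for raising coactivator recruitment to the receptor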
[11] = target: Peroxisome proliferator-activated receptor gamma/Nuclear receptor coactivator 2 (Homo sapiens, UniProt P37231); type: functional;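 note: agonist potency for raising coactivator recruitment to the receptor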
Bcl-2-related protein A1 [12] = target: T2, Bcl-2-related protein A1 (Mus musculus, UniProt Q07440); assay: displacement of Bid BH3 peptide from Bfl-1 – biochemical, fluorescence polarization, FITC-Bid, mouse, primary screen (AID 432)
T2 sequence (Q07440 whole entry): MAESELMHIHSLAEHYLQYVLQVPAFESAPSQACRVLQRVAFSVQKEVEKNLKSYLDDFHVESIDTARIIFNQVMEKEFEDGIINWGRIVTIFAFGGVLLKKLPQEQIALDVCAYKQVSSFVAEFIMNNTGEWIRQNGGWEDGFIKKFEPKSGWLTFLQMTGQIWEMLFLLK

Bcl-2-related protein A1 [13] = target: T2, Bcl-2-related protein A1; assay: small-molecule antagonists of Bfl-1/BH3 interaction – biochemical, TR-FRET, mouse Bfl-1, confirmation (AID 621);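 note: TR-FRET binding of GST-Bfl-1 to FITC-labelled Bid peptide via terbium antibody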
[14] = general cell-killing toxicity readout – plate reader, dry powder samples, cytotoxicity control for PAX8 inhibitor project, dose response (AID 743021); type: functional, cell-based
[15] = Dd2 malaria parasite growth inhibition potency – SYBR Green, dry powder samples, dose response (AID 1159566); type: functional, cell-based;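 note: potency for growth inhibition with lower SYBR green DNA signal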
[16] = IGROV1 cell killing – plate reader, dry powder samples, PAX8 inhibitor project, dose response (AID 743043); type: functional, cell-based; conditions: IGROV-1
[17] = OVCAR-3 cell viability loss – plate reader, dry powder samples, PAX8 inhibitor project, dose response (AID 743044); type: functional, cell-based
[18] = growth inhibition of yeast DHODH-expressing 3D7 parasites – SYBR Green, dry powder samples, dose response (AID 1159570); type: functional, cell-based;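 note: parasite growth measured after 72 hours of compound exposure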
[19] = toxicity to human HepG2 hepatoma cells – cell-based, plate reader, dry powder samples, cytotoxicity control, dose response (AID 1159569); type: functional;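 note: inhibitor potency with signal falling toward the positive control level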
[20] = growth inhibition of PfATP4-mutant resistant parasites – NITD609-resistant line, SYBR Green, dry powder, dose response (AID 1159571); type: functional, cell-based;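 note: parasites synchronized at ring stage by sorbitol before testing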
[21] = A2780 cell killing – plate reader, dry powder samples, cytotoxicity control, dose response (AID 743046); type: functional, cell-based
[22] = toxicity toward immortalized ovarian surface epithelium – cell-based, plate reader, dry powder samples, cytotoxicity control for PAX8 inhibitor project, dose response (AID 743045); type: functional
Paired box protein Pax-8 = Paired box protein Pax-8 (Homo sapiens, UniProt Q06710); assay: PAX8 transcriptional activity inhibition in RMG-I – RMG-I cells, luciferase, cherry-pick, dose response (AID 687027); type: functional, cell-based;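 note: luciferase reporter driven by Pax8 target thyroperoxidase promoter measured by SteadyGlo luminescence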
Chain of Paired box protein Pax-8 (Q06710 whole entry): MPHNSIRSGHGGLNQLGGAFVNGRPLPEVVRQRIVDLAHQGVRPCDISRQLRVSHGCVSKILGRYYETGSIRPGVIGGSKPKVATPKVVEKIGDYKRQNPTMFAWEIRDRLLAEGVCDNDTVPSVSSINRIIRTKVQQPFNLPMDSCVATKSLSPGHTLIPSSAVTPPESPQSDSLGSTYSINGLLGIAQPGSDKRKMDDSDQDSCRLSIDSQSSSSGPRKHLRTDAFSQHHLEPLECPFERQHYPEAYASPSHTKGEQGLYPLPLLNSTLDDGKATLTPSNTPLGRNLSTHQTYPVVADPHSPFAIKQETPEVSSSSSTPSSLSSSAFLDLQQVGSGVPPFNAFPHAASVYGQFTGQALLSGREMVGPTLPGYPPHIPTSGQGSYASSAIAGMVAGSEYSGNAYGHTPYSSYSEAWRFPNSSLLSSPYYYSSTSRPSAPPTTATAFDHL

[23] = OVCAR8 cell viability loss – plate reader, dry powder samples, PAX8 project, dose response (AID 743197); type: functional, cell-based; conditions: OVCAR-8
[24] = P. falciparum Dd2 growth inhibitors, dose response, SYBR Green, cherry-picked samples (AID 1159567); type: functional, cell-based

Chain of Glutathione-S-transferase (Q26513 whole entry): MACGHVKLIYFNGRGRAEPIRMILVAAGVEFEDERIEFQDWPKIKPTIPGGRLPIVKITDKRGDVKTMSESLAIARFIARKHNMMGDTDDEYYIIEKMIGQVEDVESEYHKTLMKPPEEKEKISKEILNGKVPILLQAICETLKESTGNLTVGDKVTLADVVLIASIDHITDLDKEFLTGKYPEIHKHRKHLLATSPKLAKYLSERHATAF

Compound: CC[n+]1ccc(C)c2cc(P(=O)(c3ccccc3)c3ccccc3)ccc21
IC50 [1]: 9.73 µM (active)

Compound: Cc1ccc(CNc2ccc(O)cc2)cc1
IC50 (Genome polyprotein): 92.5 µM (active)
IC50 [2]: > 50.9 µM (active)
CC50 [3]: > 40 µM (active)
IC50 [4]: > 80 µM (inactive)
IC50 (Protein Tat): 25.5 µM (inconclusive)

Compound: Cn1ccnc1C1CCCCN1Cc1nc(-c2ccc3c(c2)OCO3)no1 (configuration not stated)
EC50 [8]: > 79.4 µM (not active)
IC50 [9]: > 35 µM (not active)
EC50 [10]: > 79.4 µM (not active)
EC50 [11]: > 79.4 µM (not active)

Compound: COc1ccc(-c2nnc3sc(-c4c(OC)cccc4OC)nn23)cc1
IC50 (Bcl-2-related protein A1 [12]): 18.1 µM (active)
IC50 (Bcl-2-related protein A1 [13]): > 100 µM (not active)

Compound: C[C@H]1CN([C@@H](C)CO)C(=O)c2c(c3ccccc3n2C)-c2ccccc2CO[C@H]1CN(C)S(=O)(=O)c1ccc([N+](=O)[O-])cc1
AC50 [14]: 48.5 µM (active)
AC50 [15]: 0.234 µM (active)
AC50 [16]: 12.2 µM (active)
AC50 [17]: 10.1 µM (active)
AC50 [18]: 0.298 µM (active)
AC50 [19]: 66.4 µM (active)
AC50 [20]: 0.237 µM (active)
AC50 [21]: 12.7 µM (active)
AC50 [22]: 22.3 µM (active)
AC50 (Paired box protein Pax-8): 2.72 µM (active)
AC50 [23]: 10.2 µM (active)
AC50 [24]: 0.629 µM (active)

Second part, led by results:

AC50 [6]: 3.17 µM (active)
Compound: CCCCCCC(=O)N(O)C1CC(=O)N(c2ccc(Br)cc2)C1=O (configuration not stated)
CC50 [5]: > 40 µM (active)

EC50 [7]: 13.2 µM (not active)
Compound: CCn1c(=O)n(CC(=O)Nc2cc(OC)c(OC)c(OC)c2)c(=O)c2ccccc21

Reference: ChEMBL document CHEMBL1201862, “PubChem BioAssay data set” (2004)
